Experimental data published in PubChem BioAssay (NCI).
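48-hour exposure; five concentrations; linearly interpolated endpoints. TGI: concentration producing complete growth inhibition.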

What was measured:
Test in all cases: growth of human tumour cells (NCI), 48 h
DMS 273 small cell lung = system: DMS 273 small cell lung
CAKI-1 renal = system: CAKI-1 renal
COLO 205 colon = system: COLO 205 colon
SK-MEL-5 melanoma = system: SK-MEL-5 melanoma
HCT-15 colon = system: HCT-15 colon
OVCAR-5 ovarian = system: OVCAR-5 ovarian
OVCAR-3 ovarian = system: OVCAR-3 ovarian
SNB-75 CNS = system: SNB-75 CNS
RPMI-8226 leukemia = system: RPMI-8226 leukemia
NCI-H23 lung = system: NCI-H23 lung
HCT-116 colon = system: HCT-116 colon
TK-10 renal = system: TK-10 renal
M14 melanoma = system: M14 melanoma
OVCAR-8 ovarian = system: OVCAR-8 ovarian
SN12C renal = system: SN12C renal
HOP-92 NSCLC = system: HOP-92 NSCLC
NCI-H226 lung = system: NCI-H226 lung
SF-539 CNS = system: SF-539 CNS
M19-MEL melanoma = system: M19-MEL melanoma
DLD-1 colon = system: DLD-1 colon
SK-MEL-2 melanoma = system: SK-MEL-2 melanoma
HT29 colon = system: HT29 colon
SR leukemia = system: SR leukemia
UACC-62 melanoma = system: UACC-62 melanoma
786-0 renal = system: 786-0 renal
K-562 leukemia = system: K-562 leukemia
SK-MEL-28 melanoma = system: SK-MEL-28 melanoma
IGROV1 ovarian = system: IGROV1 ovarian
SW-620 colon = system: SW-620 colon
U251 CNS = system: U251 CNS
EKVX NSCLC = system: EKVX NSCLC
KM12 colon = system: KM12 colon
SK-OV-3 ovarian = system: SK-OV-3 ovarian
NCI-H460 lung = system: NCI-H460 lung
LXFL 529 NSCLC = system: LXFL 529 NSCLC
RXF 393 renal = system: RXF 393 renal
SNB-78 CNS = system: SNB-78 CNS
MALME-3M melanoma = system: MALME-3M melanoma
ACHN renal = system: ACHN renal
DMS 114 small cell lung = system: DMS 114 small cell lung
MOLT-4 leukemia = system: MOLT-4 leukemia
KM20L2 colon = system: KM20L2 colon
SF-295 CNS = system: SF-295 CNS
UACC-257 melanoma = system: UACC-257 melanoma
XF 498 CNS = system: XF 498 CNS
A549 NSCLC = system: A549 NSCLC
OVCAR-4 ovarian = system: OVCAR-4 ovarian

Measured: TGI

COC(=O)c1cc(OC(C)=O)c2c(OC)ccc(OC)c2c1
> 100 µM: all assays above
